Source: patent US8841325B2, “Immunomodulatory compounds for the restoration of vitamin D sensitivity in vitamin D resistant tumor cells” (Celgene Corporation, priority 2009, dated 2014)
“Also recorded” adds a separate entry of the source.

Columns and labels:
Assay type in all cases: cell-based
MCF-7 cells = experiment: Cell growth by Sulphorhodamine B (SRB) assay, MCF-7; settings: for effect on cell growth: single agent, Thalidomide 0.01-100 μM, CC-4047 and lenalidomide 0.001-10 μM, FIG. 6B
Experimental: Cells were seeded in 24 wells plates at a density of 10^4 cells per well and allowed to adhere for 24 hours. […] Each treatment was carried out for up to 7 days, but renewed every 2 days. Cell growth was then determined by Sulphorhodamine B (SRB) assay, measuring absorbance at 550 nm.
(§1) After 6 days treatment, cells were seeded in 24 well plates at a density of 1×10^4 cells/well. After 24 h cells were treated with reagents or vehicle for up to six days. Cells were treated for up to 6 days with log doses of Thalidomide (0.1 μM up to 100 μM), pomalidomide and lenalidomide (0 μM up to 10 μM). At the end of each experiment, cells were fixed to the bottom of the well by addition of ice-cold 50% w/v trichloroacetic acid (TCA) to give a final concentration of 10% TCA. Plates were incubated at 4° C. for 30 minutes and then washed with distilled water. Plates were allowed to air-dry at room temperature before staining with 0.4% w/v SRB in 1% v/v acetic acid and incubated for 15 minutes on a shaker. The plates were then extensively washed with 1% acetic acid to remove unbound dye and were again allowed to air-dry at room temperature. Incorporated dye was solubilised with 200 μl […] Tris base. 100 μl aliquots were transferred to a 96 well plate and absorbance at 550 nm was determined

MDA-MB-231 cells [1] = experiment: Cell growth by Sulphorhodamine B (SRB) assay, MDA-MB-231
Experimental: (§2) Cells were seeded in 24 wells plates at a density of 10^4 cells per well and allowed to adhere for 24 hours. To determine the combination effects of the drugs, cells were treated with 100 nM 1,25 D3 and 10 nM 1-oxo-2-(2,6-dioxopiperidin-3-yl)-4-aminoisoindoline or 1,3-dioxo-2-(2,6-dioxopiperidin-3-3-yl)-4-aminoisoindoline. Each treatment was carried out for up to 7 days, but renewed every 2 days. Cell growth was then determined by Sulphorhodamine B (SRB) assay, measuring absorbance at 550 nm.
as §2, with “per wekk” for “per well”, “and varying doses of” for “and 10 nM”, “or 1,3-dioxo-2-(2,6-dioxopiperidin-3-yl)-4-aminoisoindoline.” for “or 1,3-dioxo-2-(2,6-dioxopiperidin-3-3-yl)-4-aminoisoindoline.”
as §1

MDA-MB-231 cells [2] = experiment: Apoptosis protein array and Western blot (p53, p21, p27, claspin, BCL-2); settings: for expression of the anti-apoptotic protein Bcl-2: 1 μM lenalidomide or 100 nM 1,25-D3 alone
Experimental: Cells were lysed in RIPA buffer containing 1% NP40, 0.5% sodium deoxycholate, 0.1% SDS and PBS and lysates containing 300 μg protein were probed with an R and D apoptosis protein array kit according to the manufacturers instructions (R&D catalogue number ARY009). Spots were visualised using the enhanced chemiluminescence Western blotting detection system (ECL, Amersham, N.J., USA). Densitometric analysis was performed using Adobe Photoshop CS2.
To determine the pathways and proteins involved in the increased apoptosis seen with the lenalidomide/1, 25-D3 combination treatment, whole proteins were extracted from cells taken from the different treatments and were used for probing with an apoptosis protein array, according to the manufacturer. FIG. 9 illustrates the effects. […] Cells were also treated with 0.1% DMSO as a control. Cells were lysed with RIPA buffer as described in the materials and methods, and 300 μg of protein from each of the samples was used for probing with the R& D apoptosis array according to the manufacturers instructions. Results are representative of 2 separate arrays performed. The protein array gives a semi quantitative analysis of changes in the key apoptosis and checkpoint pathway proteins. […] All these proteins are well known to be major pro-apoptotic or checkpoint regulatory proteins. […] All theses results were confirmed by Western blot (FIG. 10 (a)) and densitometry plots of the array and western blot bands/dots were carried out to quantitate the changed expression of these proteins (FIG. 10 (b)). Therefore, the increase in pro-apoptotic proteins coupled with a decrease in Bcl-2 may be responsible for the increased apoptosis seen with the combination treatment.
More particularly, FIG. 10 illustrates the effects of co-treatment lenalidomide/1, 25-D3 on p53 activation and p21, p27, claspin, and BCL-2 protein expression in MDA-MB-231 cells. […] Cells were also treated with 0.1% DMSO as a control. Whole proteins were extracted and probed for p53 (serine 15 and serine 392), p21, p27, claspin, and BCL-2, with b-actin as a house-keeping protein.

[3] = 1 μM lenalidomide co-treatment with 100 nM 1,25-D3, up to 6 days

SMILES | inhibition of growth (MCF-7 cells; 100 nM 1,25-D3 alone, up to 6 days, FIG. 7B) | IC50 (MCF-7 cells; 1,25 D3 alone, read-out: dose giving IC50 inhibition) | effect on cell growth (MDA-MB-231 cells [1]; 100 nM 1,25-D3 or 1 μM IMiD alone, up to 6 days) | expression of the anti-apoptotic protein Bcl-2 (MDA-MB-231 cells [2]; up to 6 days) | effect on cell growth (MCF-7 cells; up to 6 days) | effect on cell growth (MCF-7 cells; up to 6 days, listed as lenalidomide) | inhibition at 10 µM (MDA-MB-231 cells [1]; Homo sapiens, MDA-MB-231, 144 h, single agent, 10 μM lenalidomide (highest dose), up to 6 days) | minimal concentration giving statistically significant inhibition of growth (MDA-MB-231 cells [1]; in the presence of 100 nM 1,25 D3, up to 7 days, FIG. 3) | inhibition of growth (MDA-MB-231 cells [1]; single agent, 10 μM lenalidomide (highest dose), up to 6 days) | BCL-2 expression (MDA-MB-231 cells [2]; [3]) | p21, p27 and claspin expression (MDA-MB-231 cells [2]; [3]) | p53 activation (phosphorylation of serine 15 and serine 392) (MDA-MB-231 cells [2]; [3]) | p53 activation (phosphorylation of serine 15 and serine 392) (MDA-MB-231 cells [2]; 1 μM lenalidomide only, up to 6 days) | proapoptotic protein claspin (MDA-MB-231 cells [2]; combination of lenalidomide and 1,25D3 versus either agent alone) | proapoptotic proteins P21, P27 and P53S392 (MDA-MB-231 cells [2]; lenalidomide in combination with vitamin D) | proapoptotic proteins P21, P27 and P53S392 (MDA-MB-231 cells [2]; lenalidomide on its own)
C=C1/C(=C\C=C2/CCC[C@]3(C)[C@@H]([C@H](C)CCCC(C)(C)O)CC[C@@H]23)C[C@@H](O)C[C@@H]1O [1,25-D3, 1α,25-dihydroxyvitamin D3] | 30% | 0.1 µM | no effect | does not affect | – | – | – | – | – | – | – | – | – | – | – | –
Nc1cccc2c1CN(C1CCC(=O)NC1=O)C2=O (centres unmarked) [Lenalidomide, 1-oxo-2-(2,6-dioxopiperidin-3-yl)-4-aminoisoindoline] | – | – | – | does not affect | do not Affect | no effect | 28% | 1 µM | 20% | inhibits BCL-2 expression; also recorded: abolished by the combination | induces activation | induces p53 activation | induces p53 activation | upregulated by the combination, but not with either agent alone | upregulated | upregulated
